Consider 46 molecules from publication PMC5967201, “The Odorant Binding Protein 6 Expressed in Sensilla Chaetica Displays Preferential Binding Affinity to Host Plants Volatiles in Ectropis obliqua” (Frontiers in Physiology, 2018).

Entries after “also recorded” stand apart in the source; their conditions may differ. Like-named read-outs stand apart in the source and are kept apart here.

Assay [1] addresses T1, EoblOBP6 (Ectropis obliqua, UniProt A0A1L2BL92). The assay is described as follows: Fluorescence competitive binding assay (displacement of 1-NPN from recombinant EoblOBP6). On the procedure: (§1) Fluorescence binding assays were performed on a fluorescence spectrophotometer F-380 (Tianjin, China) with a 1 cm light path quartz cuvette and 10 nm slits for excitation and emission. The excitation wavelength was set at 337 nm, and the emission spectrum was recorded between 390 and 500 nm. Both the fluorescent probe N-phenyl-1-naphthylamine (1-NPN) and the tested chemicals were dissolved in methanol in preparation for 1 mM stock solution. […] The fluorescence intensities at the maximum fluorescence emission were plotted against the free ligand concentration to determine the binding constants. The bound ligand was evaluated from the fluorescence intensity in the assumption of the protein was 100% dynamic, with a stoichiometry of 1:1 (protein: ligand) at saturation. The binding curves were linearized using Scatchard Plot.

Assay [2] deals with antennae of E. obliqua. The arrangement: method as in Zhang Z. et al., 2015. To be noted: ref Zhang Z. et al., 2015; cited from earlier work.
For assay [3], the target named is T1, EoblOBP6. As to the kind of experiment: Fluorescence binding assay of probe 1-NPN with recombinant EoblOBP6 (titration, Scatchard plot). The procedure:
as §1, with “For the ligand binding assays, the tested compounds, including terpenoids, tea volatiles, herbivore-induced plant volatiles and non-volatile tastants, were selected according to the previously reported isolation from the E. obliqua host plant and non-host plant ([Sun X.L. et al., 2014]; [Zhang Z. et al., 2015]). Fluorescence” for “Fluorescence”, “saturation. […]” for “saturation.”, “dissociation constants of competitors” for “binding curves”, “calculated from the corresponding IC50 values following the equation: Ki = (IC50)/(1+(1-NPN)/K1-NPN), where (1-NPN) is the free concentration of 1-NPN and K1-NPN is the dissociation constant of the protein/1-NPN complex.” for “linearized using Scatchard Plot.”

The mark [4] stands for this setting: Table 1 volatiles, calculated from IC50: Ki = (IC50)/(1+(1-NPN)/K1-NPN).
Setting [5] is: Table 2 non-volatile tastants, calculated from IC50: Ki = (IC50)/(1+(1-NPN)/K1-NPN).
Where [6] appears, read: Table 2 non-volatile tastants, competitor 2 to 30 μM, 1-NPN and EoblOBP6 both at 2 μM.
Setting [7] is: Table 1 volatiles, calculated from IC50: Ki = (IC50)/(1+(1-NPN)/K1-NPN), read-out: Ki.
Where [8] appears, read: Table 1 volatiles, competitor titrated 2 to 30 μM into 1-NPN and EoblOBP6 both at 2 μM, 50 mM Tris-HCl pH 7.4, read-out: IC50.

T1 sequence (A0A1L2BL92 entry or part of it): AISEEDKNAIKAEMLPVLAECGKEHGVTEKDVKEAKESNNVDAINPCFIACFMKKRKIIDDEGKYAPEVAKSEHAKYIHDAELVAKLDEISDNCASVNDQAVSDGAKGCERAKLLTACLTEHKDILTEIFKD

As to `N#CCc1ccccc1` [Benzyl nitrile], the inhibition constant (Ki) entry in assay [1] (setting [4]) was “u.d”.

On to `C=C(C)[C@H]1CC=C(C)CC1` [Limonene], for which the Ki result in assay [1] (setting [4]) was “u.d”.

On to `CCCCCCO` [1-Hexanol], for which the “binding ability to EoblOBP6 in words” value in assay [1] was “could hardly bind”. Moreover, the Ki result in assay [1] (setting [4]) is listed as “u.d”. In the case of `CC1=CCC(C(C)C)=CC1` [γ-Terpinene], the inhibition constant Ki result in assay [1] (setting [4]) is recorded as “u.d”. As for `C[C@H](N)C(=O)O` [L-Alanine], the inhibition constant (Ki) result in assay [1] (setting [5]) is given as “u.d”. For the same molecule, the IC50 entry in assay [1] (setting [6]) is “u.d”. Take `OCc1ccccc1` [Benzyl alcohol]: the inhibition constant Ki entry in assay [1] (setting [4]) was “u.d”. On the same count and under the same terms, to `CCCCCCCCC=O` [Nonanal] belongs “u.d”; to `CC1=C[C@H](O)[C@H]2C[C@@H]1C2(C)C` (relative stereo) [cis-Verbenol], “u.d”. `CC(=O)/C=C/C1=C(C)CCCC1(C)C` [β-Ionone]: in assay [1] (setting [4]), the inhibitory constant (Ki) entry was “u.d”. Take `CC1=CC(=O)[C@@H]2C[C@H]1C2(C)C` [Verbenone]: the Ki result in assay [1] (setting [4]) is reported as “u.d”. On to `N[C@@H](Cc1c[nH]cn1)C(=O)O` [L-Histidine], for which the Ki entry in assay [1] (setting [5]) is “u.d”. Also, the IC50 entry in assay [1] (setting [6]) is given as “u.d”.

On to `O=C[C@H](O)[C@@H](O)[C@H](O)CO` [D-Xylose], for which the Ki entry in assay [1] (setting [5]) was “u.d”. Moreover, in assay [1] (setting [6]), the 50% inhibitory concentration (IC50) entry was “u.d”.

As to `C=CC(=C)CCC=C(C)C` [β-Myrcene], the Ki result in assay [1] (setting [4]) is on record as “u.d”. Regarding `C=C/C(C)=C/CC=C(C)C` [β-Ocimene], the Ki entry in assay [1] (setting [4]) is listed as “u.d”. Take `CCC/C=C/C=O` [(E)-2-hexenal]: in assay [1] (setting [4]), the inhibitory constant (Ki) result is reported as “u.d”. For the molecule `Cn1c(=O)c2[nH]cnc2n(C)c1=O` [Theophylline, reference compound], the inhibitory constant (Ki) entry in assay [1] (setting [5]) is “u.d”. The half-maximal inhibitory concentration (IC50) entry in assay [1] (setting [6]) was “u.d”. As for `c1ccc2[nH]ccc2c1` [Indole], in assay [1] (setting [4]), the Ki result is given as “u.d”.

On to `OCc1ccccc1O[C@@H]1O[C@H](CO)[C@@H](O)[C@H](O)[C@H]1O` [D(-)-Salicin], for which the Ki result in assay [1] (setting [5]) is “u.d”. In addition, the concentration for half-maximal inhibition (IC50) result in assay [1] (setting [6]) is on record as “u.d”. With `CCCCCCOC(C)=O` [Hexyl acetate], the “binding ability to EoblOBP6 in words” value in assay [1] is “could hardly bind”. Besides, the Ki result in assay [1] (setting [4]) is on record as “u.d”. Consider `CC1=CCC2CC1C2(C)C` (stereo not drawn) [α-Pinene], for which the inhibition constant Ki result in assay [1] (setting [4]) was “u.d”. Turning to `O.Oc1cc(O)c2c(c1)O[C@H](c1ccc(O)c(O)c1)[C@@H](O)C2` [Catechin], in assay [1] (setting [5]), the Ki result is given as “u.d”. In addition, in assay [1] (setting [6]), the half-inhibitory concentration (IC50) result was “u.d”.

For `O=Cc1ccccc1` [Benzaldehyde], in assay [1], the concentration for half-maximal inhibition (IC50) came out at 21.6 ± 0.84 µM and the Ki came to 15.1 ± 0.58 µM. Turning to `OC[C@H]1O[C@@](CO)(O[C@H]2O[C@H](CO)[C@@H](O)[C@H](O)[C@H]2O)[C@@H](O)[C@@H]1O` [D-Sucrose], the inhibition constant Ki entry in assay [1] (setting [5]) is “u.d”. In assay [1] (setting [6]), the half-inhibitory concentration (IC50) result is reported as “u.d”. As for `C=CC(C)(O)CCC=C(C)C` (centres unmarked) [Linalool], the inhibition constant (Ki) result in assay [1] (setting [4]) was “u.d”. For `CC1=CC[C@@H](C(C)(C)O)CC1` [α-Terpineol], the inhibition constant (Ki) result in assay [1] (setting [4]) is “u.d”. In the case of `OC[C@H]1OC(O)[C@H](O)[C@@H](O)[C@@H]1O` (stereo partly drawn) [D-Glucose], the Ki entry in assay [1] (setting [5]) was “u.d”. In addition, in assay [1] (setting [6]), the half-inhibitory concentration (IC50) entry is on record as “u.d”. Take `COC(=O)c1ccccc1O` [Methyl salicylate]: the Ki entry in assay [1] (setting [4]) is “u.d”. On to `CC/C=C\CCO` [(Z)-3-hexenol], for which, in assay [1], the “binding ability to EoblOBP6 in words” value is given as “could hardly bind”. Also, the Ki entry in assay [1] (setting [4]) is recorded as “u.d”.

For `CC/C=C\CC=O` [(Z)-3-hexenal], the Ki entry in assay [1] (setting [4]) is recorded as “u.d”. For `CCCCCCCCCC=O` [Decanal], the “binding ability to EoblOBP6 in words” value in assay [1] is on record as “could hardly bind”. The inhibitory constant (Ki) entry in assay [1] (setting [4]) is on record as “u.d”. Take `C=C1CCC2CC1C2(C)C` (stereo not drawn) [(-)-β-Pinene]: the inhibition constant Ki result in assay [1] (setting [4]) was “u.d”. With `CC1=CC=C(C(C)C)CC1` [α-Terpinene], the “electrophysiological responses from the antennae” value in assay [2] is reported as “strong electrophysiological responses”. Also, in assay [1], the IC50 was 26.2 ± 0.53 µM and the inhibition constant (Ki) was 18.3 ± 0.37 µM.

Consider `CC12CCC(CC1=O)C2(C)C` (centres unmarked) [Camphor], for which the Ki entry in assay [1] (setting [4]) is on record as “u.d”. The same measure, in the same setting: next, `CC/C=C\CCOC(=O)CCCCC` [(Z)-3-hexenyl hexanoate]: “u.d”.

As to `C=C/C(C)=C/C/C=C(\C)CCC=C(C)C` [α-Farnesene], in assay [1], the “binding ability to EoblOBP6 in words” value is “high binding ability”. Moreover, the inhibitory constant (Ki) in assay [1] (setting [7]) was 11 ± 0.29 µM. Besides, the IC50 in assay [1] (setting [8]) stood at 15.8 ± 0.42 µM. As for `Cn1c(=O)c2c(ncn2C)n(C)c1=O` [Caffeine, reference compound], the inhibition constant Ki entry in assay [1] (setting [5]) was “u.d”. In assay [1] (setting [6]), the IC50 entry was “u.d”.

`C/C1=C\CC/C(C)=C/CC(C)(C)/C=C/C1` [α-Caryophyllene]: the Ki in assay [1] (setting [7]) was 15.6 ± 0.19 µM. Moreover, the IC50 in assay [1] (setting [8]) was determined as 22.4 ± 0.27 µM.

`C=CC(C)(O)CCC=C(C)CCC=C(C)C` (mixture of isomers) [Nerolidol]: in assay [1], the half-maximal inhibitory concentration (IC50) was determined as 15.6 ± 0.76 µM, the inhibition constant (Ki) turned out to be 10.9 ± 0.53 µM and the “binding ability to EoblOBP6 in words” value is “high binding ability”. For `CC/C=C\CCOC(C)=O` [(Z)-3-hexenyl acetate], the Ki result in assay [1] (setting [4]) is on record as “u.d”.

On to `COc1ccc2cc3[n+](cc2c1OC)CCc1cc2c(cc1-3)OCO2` [Berberine], for which, in assay [1], the IC50 turned out to be 7.94 ± 0.61 µM, the Ki came out at 5.55 ± 0.87 µM and the “binding ability to EoblOBP6 in words” value was “tightly bound; also recorded: bind strongly”. `CC/C=C\CCOC(=O)CCC` [(Z)-3-hexenyl butyrate]: the inhibition constant (Ki) result in assay [1] (setting [4]) is reported as “u.d”. Regarding `OC[C@H]1O[C@H](O[C@H]2O[C@H](CO)[C@@H](O)[C@H](O)[C@H]2O)[C@H](O)[C@@H](O)[C@@H]1O` [Trehalose], in assay [1] (setting [5]), the Ki result is “u.d”. Also, the concentration for half-maximal inhibition (IC50) entry in assay [1] (setting [6]) is “u.d”.

For the molecule `c1ccc(Nc2cccc3ccccc23)cc1` [1-NPN, N-phenyl-1-naphthylamine], the Kd in assay [3] was determined as 2.7 ± 0.24 µM.

With `C=C1[C@H]2CC[C@H](C2)C1(C)C` [(+)-Camphene], in assay [1] (setting [4]), the inhibitory constant (Ki) result is “u.d”. Consider `C=C1CC/C=C(\C)CC[C@@H]2[C@@H]1CC2(C)C` [β-Caryophyllene], for which the inhibition constant (Ki) entry in assay [1] (setting [4]) was “u.d”. In the case of `CN1[C@@H]2CC[C@H]1C[C@@H](OC(=O)C(CO)c1ccccc1)C2` (some centres unmarked) [Atropine, reference compound], the Ki result in assay [1] (setting [5]) was “u.d”. Further, the half-inhibitory concentration (IC50) entry in assay [1] (setting [6]) is “u.d”.
